Where two headings read alike, the source gives them in different places.
Tests used:
[1] = target: T1, Drosophila OR10a (Drosophila melanogaster, UniProt Q9VYZ1); assay: Calcium ion fluorescence (GCaMP6) assay, OR10a stable HEK293 cell line; type: cell-based
T1 construct: expressed in transfected cells
T1 sequence (Q9VYZ1 1-406): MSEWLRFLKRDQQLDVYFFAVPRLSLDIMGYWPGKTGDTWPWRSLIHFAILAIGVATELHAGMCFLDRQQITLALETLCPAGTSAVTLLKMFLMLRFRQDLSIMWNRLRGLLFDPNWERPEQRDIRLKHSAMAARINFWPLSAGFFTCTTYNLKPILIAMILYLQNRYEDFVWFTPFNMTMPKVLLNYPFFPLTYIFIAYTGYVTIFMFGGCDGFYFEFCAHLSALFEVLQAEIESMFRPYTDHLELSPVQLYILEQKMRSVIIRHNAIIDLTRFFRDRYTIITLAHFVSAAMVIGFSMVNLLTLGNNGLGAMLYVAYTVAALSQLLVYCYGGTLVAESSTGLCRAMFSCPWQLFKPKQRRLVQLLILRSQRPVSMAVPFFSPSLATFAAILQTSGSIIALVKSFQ
T1 sequence (Q9VNB5 1-486 partner): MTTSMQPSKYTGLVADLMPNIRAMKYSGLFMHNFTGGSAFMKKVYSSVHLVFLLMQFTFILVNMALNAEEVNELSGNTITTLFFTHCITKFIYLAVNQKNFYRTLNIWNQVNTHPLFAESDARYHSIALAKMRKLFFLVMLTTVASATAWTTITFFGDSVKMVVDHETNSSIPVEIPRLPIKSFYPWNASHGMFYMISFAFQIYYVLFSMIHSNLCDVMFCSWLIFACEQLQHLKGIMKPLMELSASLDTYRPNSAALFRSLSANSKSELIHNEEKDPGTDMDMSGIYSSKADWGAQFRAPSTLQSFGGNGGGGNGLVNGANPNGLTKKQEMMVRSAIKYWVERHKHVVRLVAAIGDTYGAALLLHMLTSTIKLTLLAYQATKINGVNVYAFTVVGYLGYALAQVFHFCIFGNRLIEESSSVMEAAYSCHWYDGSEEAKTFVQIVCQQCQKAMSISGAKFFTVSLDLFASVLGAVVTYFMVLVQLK
Description: (§1) These VUAA1 normalized ∆F values were used to compare the different receptors and ligands.
(§2) The concentration-dependent effect of the reference ligands on their cognate cell lines was examined in more detail. Twelve different ligand concentrations were measured on each cell line in an overall 0.01 μM to 100 μM concentration range with 5 repetitions with three technical replicates each time.
(§3) Twelve thousand to 18,000 cells were plated into each well of a black wall, transparent bottom 384-well microplate (Greiner) 48 h or 72 h before the measurements and were simultaneously treated with 1 μg/mL doxycycline. […] The plate has 24 columns, thus we could record responses in up to eight different cell lines in each plate. On the day of the experiment, the growth medium was replaced with 20 µL assay buffer/well (140 mM NaCl, 5 mM KCl, 2 mM CaCl2, 1 mM MgCl2, 5 mM HEPES-Na, 20 mM glucose, pH 7.3, 340 mOsm). […] Baseline fluorescence (F0) was recorded for 5 s, after which 7 µL VOC buffer (140 mM NaCl, 5 mM KCl, 2 mM CaCl2, 1 mM MgCl2, 5 mM HEPES-Na, 31 mM glucose, 0.1% DMSO, pH 7.3, 340 mOsm) was injected into each well in one row and the fluorescence response was recorded for an additional 30 s, at a rate of one read/sec. VOC solutions (VOC buffer with 4× concentration of the final measured VOC concentration, 9 µL/well was injected) were measured on the same wells in a second round with the same protocol. Each individual concentration of a specific VOC sample was recorded in three wells for the same cell line on the same microplate. The raw data were exported in xls file format, F0 and FMAX values, and the fluorescence intensity changes (∆F) were calculated in Excel (Microsoft) (Supplementary file Data summary.xlsx) using the following equation: ΔF=FMAX-F0/F0 (see also Fig. 1C). On each plate, we recorded the response of each cell line to 50 µM VUAA1. The average of these ∆F values of each cell line were used to calculate the VUAA1-normalized values for the rest of the plate, by dividing VOC response ∆F values by the average VUAA1 response ∆F value of the corresponding OR cell line. Each VOC-OR combination was measured three times as technical replicates. […] The average of these replicates were used as one ∆F and VUAA1-normalized ∆F in the following analysis.
(§4) In the next rows we tested the reference VOCs (or other VOCs known to activate the corresponding cell lines), in order to test if all cell lines are responsive. The remaining rows were used to test VOCs with unknown effect.
(§5) The recorded FMAX, F0, ∆F, VUAA1-normalized ∆F values, as well as the OR name, the name of the tested sample, and the final concentration for each well were copied into supplementary file Data summary.xlsx, that was used to summarize all the plates recorded. Here, the averages of the measurements were calculated for each receptor-VOC-concentration combination.

[2] = target: T2, Drosophila OR85b (Drosophila melanogaster, UniProt Q9VHQ7); assay: Calcium ion fluorescence (GCaMP6) assay, OR85b stable HEK293 cell line; type: cell-based; conditions: for Average response: OR85b cell line, VUAA1-normalized response, mean of biological replicates; for DF norm AVERAGE OR85b: normalized fluorescence change, values below 0.05 threshold given as 0
T2 construct: expressed in transfected cells
T2 sequence (Q9VHQ7 1-390): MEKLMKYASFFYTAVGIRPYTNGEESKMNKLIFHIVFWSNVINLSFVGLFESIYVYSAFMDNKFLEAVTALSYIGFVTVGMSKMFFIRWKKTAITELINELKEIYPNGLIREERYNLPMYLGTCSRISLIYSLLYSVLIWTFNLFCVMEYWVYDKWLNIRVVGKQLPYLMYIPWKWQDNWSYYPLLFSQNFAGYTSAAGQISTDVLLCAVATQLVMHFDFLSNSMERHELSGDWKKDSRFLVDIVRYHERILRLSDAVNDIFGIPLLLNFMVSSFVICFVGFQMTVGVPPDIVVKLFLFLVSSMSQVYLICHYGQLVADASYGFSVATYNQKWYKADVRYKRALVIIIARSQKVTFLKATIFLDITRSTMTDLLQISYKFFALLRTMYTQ
T2 sequence (Q9VNB5 1-486 partner): T1 sequence (Q9VNB5 1-486 partner)
Description: as §1, §2, §3, §4, §5

[3] = HEK293, 1 μM VOC, 50 μM VUAA1 = 1, responses not exceeding 0.05 considered 0, read-out: OR10a Average response (VUAA1-normalized)
[4] = HEK293, 10 μM VOC, 50 μM VUAA1 = 1, responses not exceeding 0.05 considered 0, read-out: OR10a Average response (VUAA1-normalized)
[5] = HEK293, 100 μM VOC, 50 μM VUAA1 = 1, responses not exceeding 0.05 considered 0, read-out: OR10a Average response (VUAA1-normalized)
[6] = HEK293, read-out: OR10a response (VUAA1-normalized response), VOC concentration 1 μM
[7] = HEK293, read-out: OR10a response (VUAA1-normalized response), VOC concentration 10 μM
[8] = HEK293, read-out: OR10a response (VUAA1-normalized response), VOC concentration 100 μM
[9] = HEK293, read-out: OR85b Average response (VUAA1-normalized)
[10] = HEK293, read-out: OR85b response (VUAA1-normalized response)
[11] = 100 µM, OR10a clone G5, single plate 2019.12.05

Row | SMILES | DF norm AVERAGE OR10a [1] | Average response ([2]; cc. 1 µM) | Average response ([2]; cc. 10 µM) | Average response ([2]; cc. 100 µM) | DF norm AVERAGE OR85b ([2]; concentration 1) | DF norm AVERAGE OR85b ([2]; concentration 10) | DF norm AVERAGE OR85b ([2]; concentration 100) | activation at 1 µM [1, 3] | activation at 10 µM [1, 4] | activation at 100 µM [1, 5] | activation at 1 µM [1, 6] | activation at 10 µM [1, 7] | activation at 100 µM [1, 8] | activation at 1 µM [2, 10] | activation at 10 µM [2, 10] | activation at 100 µM [2, 10] | also measured
1 | C=C(C)C1CCC2(C)OC2C1 (single isomer, unassigned; (+)) [(+)-limonene oxide] | 0 | 0.00 | 0.00 | 0.00 | 0 | 0 | 0 |  |  |  |  |  |  |  |  |  | OR10a Average response (VUAA1-normalized) ([1]; 1 μM VOC, 50 μM VUAA1 = 1, responses not exceeding 0.05 considered 0): 0.00; OR10a Average response (VUAA1-normalized) ([1]; 10 μM VOC, 50 μM VUAA1 = 1, responses not exceeding 0.05 considered 0): 0.02; OR10a Average response (VUAA1-normalized) ([1]; 100 μM VOC, 50 μM VUAA1 = 1, responses not exceeding 0.05 considered 0): 0.00; OR10a response (VUAA1-normalized response) ([1]; VOC concentration 1 μM): 0.00; OR10a response (VUAA1-normalized response) ([1]; VOC concentration 10 μM): 0.00; OR10a response (VUAA1-normalized response) ([1]; VOC concentration 100 μM): 0.00; OR85b response (VUAA1-normalized response) ([2]; VOC concentration 1 μM): 0.00; OR85b response (VUAA1-normalized response) ([2]; VOC concentration 10 μM): 0.00; OR85b response (VUAA1-normalized response) ([2]; VOC concentration 100 μM): 0.00
2 | Cc1ccc(C)c(C)c1 [1,2,4-trimethylbenzene] |  | 0.0436 | 0.0741 | 0.12 | 0 | 0.0741 | 0.1212 | 7% | 0% | 2.53% | 7% | 0% | 0% | 0% | 7.41% | 12% | activation at 1 µM [2, 9]: 4%; activation at 10 µM [2, 9]: 7%; activation at 100 µM [2, 9]: 12%
3 | COc1cccc(OC)c1 [1,3-dimethoxy benzene] | 0 | 0.00 | 0.0268 | 0.0367 | 0 | 0 | 0 | 0% | 0% | 0% | 0% | 0% | 0% | 0% | 0% | 0% | 
4 | CCCCCCCO [1-heptanol] |  | 0.00 | 0.00 | 0.00 | 0 | 0 | 0 | 1.56% | 6.57% | 0% | 0% | 6.57% | 0% | 0% | 0% | 0% | 
5 | C=CC(O)CCCCC (centres unmarked) [1-octen-3-ol] | 0 | 0.00 | 0.0043 | 0.08 | 0 | 0 | 0.08325 | 0% | 2.34% | 4.52% | 0% | 0% | 0% | 0% | 0% | 8% | 
6 | CCCCCO [1-pentanol] | 0 | 0.00 | 0.00 | 0.00 | 0 | 0 | 0 | 0% | 0% | 0% | 0% | 0% | 0% | 0% | 0% | 0% | 
7 | CCCCCC(C)O (centres unmarked) [2-heptanol] |  | 0.0455 | 0.05 | 0.32 | 0 | 0 | 0.3169 | 3.76% | 7.54% | 0% | 0% | 7.54% | 0% | 0% | 0% | 32% | activation at 1 µM [2, 9]: 5%; activation at 10 µM [2, 9]: 5%; activation at 100 µM [2, 9]: 32%
8 | CCCCOC(=O)CC [butyl propanoate] |  |  |  |  |  |  |  | 0% | 0% | 3.44% | 0% | 0% | 0% |  |  |  | DF norm, all technical replicates [1, 11]: 0; DF norm, outlier technical replicates removed [1, 11]: 0; DF, outlier technical replicates removed [1, 11]: 0; DF, all technical replicates ([1]; 100 µM, OR10a clone G5, single plate 2019.12.05, xc+0.1%DMSO): 0; DF norm AVERAGE OR10a ([1]; ligand concentration 1 (unit not given), threshold 0.05, below shown as 0): 0; DF norm AVERAGE OR10a ([1]; ligand concentration 10 (unit not given), threshold 0.05, below shown as 0): 0; DF norm AVERAGE OR10a ([1]; ligand concentration 100 (unit not given), threshold 0.05, below shown as 0): 0
